{
  "source": "ChEMBL document CHEMBL2424639",
  "about": "“Synthesis and pharmacological activities of some novel 5-chloro-N-(4-(1,5-(disubstituted)-4,5-dihydro-1H-pyrazol-3-yl)phenyl)-2-methoxybenzamide derivatives” (Med Chem Res, 2013)",
  "key": {"Rattus norvegicus [1]": {"test_system": "Rattus norvegicus", "experiment": "Antiinflammatory activity in albino rat assessed as protection against carrageenan-induced paw edema at 50 mg/kg, po administered 1 hr prior to carrageenan challenge measured after 4 hrs relative to control", "type": "functional"}, "Rattus norvegicus [2]": {"test_system": "Rattus norvegicus", "experiment": "Antiinflammatory activity in albino rat assessed as protection against carrageenan-induced paw edema at 25 mg/kg, po administered 1 hr prior to carrageenan challenge measured after 4 hrs relative to control", "type": "functional"}, "Rattus norvegicus [3]": {"test_system": "Rattus norvegicus", "experiment": "In vivo inhibition of PGE2 in albino rat plasma at 50 mg/kg, po administered 1 hr prior to carrageenan challenge measured after 4 hrs by EIA relative to control", "type": "functional"}, "Rattus norvegicus [4]": {"test_system": "Rattus norvegicus", "experiment": "In vivo inhibition of PGE2 in albino rat plasma at 25 mg/kg, po administered 1 hr prior to carrageenan challenge measured after 4 hrs by EIA relative to control", "type": "functional"}, "[5]": {"experiment": "Acute toxicity in rat", "type": "organism-based", "settings": "in vivo"}},
  "data": [
    {"smiles": "COc1ccc(Cl)cc1C(=O)Nc1ccc(C2=NNC(c3ccc([N+](=O)[O-])cc3)C2)cc1", "note": "(centres undefined)", "values": [
      {"measurement": "Activity", "setting": "Rattus norvegicus [1]", "result": 95.3, "unit": "%"},
      {"measurement": "Activity", "setting": "Rattus norvegicus [2]", "result": 91.25, "unit": "%"},
      {"measurement": "inhibition in vivo at 50 mg/kg", "setting": "Rattus norvegicus [3]", "result": 86.3, "unit": "%"},
      {"measurement": "inhibition in vivo at 25 mg/kg", "setting": "Rattus norvegicus [4]", "result": 76.3, "unit": "%"}
    ]},
    {"smiles": "C[C@]12C=CC(=O)C=C1CC[C@@H]1[C@@H]2[C@@H](O)C[C@@]2(C)[C@H]1CC[C@]2(O)C(=O)CO", "note": "[PREDNISOLONE]", "values": [
      {"measurement": "Activity", "setting": "Rattus norvegicus [1]", "result": 92.1, "unit": "%"},
      {"measurement": "Activity", "setting": "Rattus norvegicus [2]", "result": 80.4, "unit": "%"},
      {"measurement": "inhibition in vivo at 50 mg/kg", "setting": "Rattus norvegicus [3]", "result": 92.1, "unit": "%"},
      {"measurement": "inhibition in vivo at 25 mg/kg", "setting": "Rattus norvegicus [4]", "result": 78.1, "unit": "%"}
    ]},
    {"smiles": "COc1ccc(C2CC(c3ccc(NC(=O)c4cc(Cl)ccc4OC)cc3)=NN2C)cc1", "note": "(centres undefined)", "values": [
      {"measurement": "Activity", "setting": "Rattus norvegicus [1]", "result": 93.15, "unit": "%"},
      {"measurement": "Activity", "setting": "Rattus norvegicus [2]", "result": 88.1, "unit": "%"},
      {"measurement": "LD50", "setting": "[5]", "result": 2390, "unit": "mg/kg"},
      {"measurement": "inhibition in vivo at 50 mg/kg", "setting": "Rattus norvegicus [3]", "result": 81.8, "unit": "%"},
      {"measurement": "inhibition in vivo at 25 mg/kg", "setting": "Rattus norvegicus [4]", "result": 69.6, "unit": "%"}
    ]},
    {"smiles": "COc1ccc(Cl)cc1C(=O)Nc1ccc(C2=NN(c3ccccc3)C(c3ccc([N+](=O)[O-])cc3)C2)cc1", "note": "(centres undefined)", "values": [
      {"measurement": "Activity", "setting": "Rattus norvegicus [1]", "result": 94.1, "unit": "%"},
      {"measurement": "Activity", "setting": "Rattus norvegicus [2]", "result": 90.85, "unit": "%"},
      {"measurement": "LD50", "setting": "[5]", "result": 2380, "unit": "mg/kg"},
      {"measurement": "inhibition in vivo at 50 mg/kg", "setting": "Rattus norvegicus [3]", "result": 85.3, "unit": "%"},
      {"measurement": "inhibition in vivo at 25 mg/kg", "setting": "Rattus norvegicus [4]", "result": 75.3, "unit": "%"}
    ]},
    {"smiles": "COc1ccc(Cl)cc1C(=O)Nc1ccc(C(=O)/C=C/c2ccc([N+](=O)[O-])cc2)cc1", "values": [
      {"measurement": "LD50", "setting": "[5]", "result": 1830, "unit": "mg/kg"}
    ]},
    {"smiles": "COc1ccc(C2CC(c3ccc(NC(=O)c4cc(Cl)ccc4OC)cc3)=NN2c2ccccc2)cc1", "note": "(centres undefined)", "values": [
      {"measurement": "Activity", "setting": "Rattus norvegicus [1]", "result": 98, "unit": "%"},
      {"measurement": "Activity", "setting": "Rattus norvegicus [2]", "result": 94.82, "unit": "%"},
      {"measurement": "LD50", "setting": "[5]", "result": 2390, "unit": "mg/kg"},
      {"measurement": "inhibition in vivo at 50 mg/kg", "setting": "Rattus norvegicus [3]", "result": 90.2, "unit": "%"},
      {"measurement": "inhibition in vivo at 25 mg/kg", "setting": "Rattus norvegicus [4]", "result": 82.3, "unit": "%"}
    ]},
    {"smiles": "COc1ccc(Cl)cc1C(=O)Nc1ccc(C2=NN(C)C(c3ccc([N+](=O)[O-])cc3)C2)cc1", "note": "(centres undefined)", "values": [
      {"measurement": "Activity", "setting": "Rattus norvegicus [1]", "result": 97.4, "unit": "%"},
      {"measurement": "Activity", "setting": "Rattus norvegicus [2]", "result": 93, "unit": "%"},
      {"measurement": "LD50", "setting": "[5]", "result": 2540, "unit": "mg/kg"},
      {"measurement": "inhibition in vivo at 50 mg/kg", "setting": "Rattus norvegicus [3]", "result": 83.2, "unit": "%"},
      {"measurement": "inhibition in vivo at 25 mg/kg", "setting": "Rattus norvegicus [4]", "result": 71.3, "unit": "%"}
    ]},
    {"smiles": "COc1ccc(Cl)cc1C(=O)Nc1ccc(C2=NN(C(C)=O)C(c3ccccc3[N+](=O)[O-])C2)cc1", "note": "(centres undefined)", "values": [
      {"measurement": "Activity", "setting": "Rattus norvegicus [1]", "result": 96.15, "unit": "%"},
      {"measurement": "Activity", "setting": "Rattus norvegicus [2]", "result": 92.16, "unit": "%"},
      {"measurement": "inhibition in vivo at 50 mg/kg", "setting": "Rattus norvegicus [3]", "result": 87.2, "unit": "%"},
      {"measurement": "inhibition in vivo at 25 mg/kg", "setting": "Rattus norvegicus [4]", "result": 77.2, "unit": "%"}
    ]},
    {"smiles": "COc1ccc(C2CC(c3ccc(NC(=O)c4cc(Cl)ccc4OC)cc3)=NN2C(C)=O)cc1", "note": "(centres undefined)", "values": [
      {"measurement": "Activity", "setting": "Rattus norvegicus [1]", "result": 90.2, "unit": "%"},
      {"measurement": "Activity", "setting": "Rattus norvegicus [2]", "result": 86, "unit": "%"},
      {"measurement": "inhibition in vivo at 50 mg/kg", "setting": "Rattus norvegicus [3]", "result": 88.4, "unit": "%"},
      {"measurement": "inhibition in vivo at 25 mg/kg", "setting": "Rattus norvegicus [4]", "result": 79.4, "unit": "%"}
    ]},
    {"smiles": "COc1ccc(Cl)cc1C(=O)Nc1ccc(C2=NN(c3ccccc3)C(c3ccccc3[N+](=O)[O-])C2)cc1", "note": "(centres undefined)", "values": [
      {"measurement": "Activity", "setting": "Rattus norvegicus [1]", "result": 88.4, "unit": "%"},
      {"measurement": "Activity", "setting": "Rattus norvegicus [2]", "result": 80.18, "unit": "%"},
      {"measurement": "LD50", "setting": "[5]", "result": 2390, "unit": "mg/kg"},
      {"measurement": "inhibition in vivo at 50 mg/kg", "setting": "Rattus norvegicus [3]", "result": 84.3, "unit": "%"},
      {"measurement": "inhibition in vivo at 25 mg/kg", "setting": "Rattus norvegicus [4]", "result": 73.3, "unit": "%"}
    ]},
    {"smiles": "COc1ccc(/C=C/C(=O)c2ccc(NC(=O)c3cc(Cl)ccc3OC)cc2)cc1", "values": [
      {"measurement": "Activity", "setting": "Rattus norvegicus [1]", "result": 93.1, "unit": "%"},
      {"measurement": "Activity", "setting": "Rattus norvegicus [2]", "result": 79, "unit": "%"},
      {"measurement": "LD50", "setting": "[5]", "result": 2230, "unit": "mg/kg"},
      {"measurement": "inhibition in vivo at 50 mg/kg", "setting": "Rattus norvegicus [3]", "result": 79.2, "unit": "%"},
      {"measurement": "inhibition in vivo at 25 mg/kg", "setting": "Rattus norvegicus [4]", "result": 68.1, "unit": "%"}
    ]},
    {"smiles": "COc1ccc(Cl)cc1C(=O)Nc1ccc(C2=NN(C)C(c3ccccc3[N+](=O)[O-])C2)cc1", "note": "(centres undefined)", "values": [
      {"measurement": "Activity", "setting": "Rattus norvegicus [1]", "result": 99.5, "unit": "%"},
      {"measurement": "Activity", "setting": "Rattus norvegicus [2]", "result": 96.45, "unit": "%"},
      {"measurement": "LD50", "setting": "[5]", "result": 2350, "unit": "mg/kg"},
      {"measurement": "inhibition in vivo at 50 mg/kg", "setting": "Rattus norvegicus [3]", "result": 91.2, "unit": "%"},
      {"measurement": "inhibition in vivo at 25 mg/kg", "setting": "Rattus norvegicus [4]", "result": 83.8, "unit": "%"}
    ]},
    {"smiles": "COc1ccc(Cl)cc1C(=O)Nc1ccc(C(=O)/C=C/c2ccccc2[N+](=O)[O-])cc1", "values": [
      {"measurement": "Activity", "setting": "Rattus norvegicus [1]", "result": 85.85, "unit": "%"},
      {"measurement": "Activity", "setting": "Rattus norvegicus [2]", "result": 81.8, "unit": "%"},
      {"measurement": "LD50", "setting": "[5]", "result": 2400, "unit": "mg/kg"},
      {"measurement": "inhibition in vivo at 50 mg/kg", "setting": "Rattus norvegicus [3]", "result": 80.4, "unit": "%"},
      {"measurement": "inhibition in vivo at 25 mg/kg", "setting": "Rattus norvegicus [4]", "result": 69.1, "unit": "%"}
    ]},
    {"smiles": "COc1ccc(Cl)cc1C(=O)Nc1ccc(C2=NN(CN3CCOCC3)C(c3ccc([N+](=O)[O-])cc3)C2)cc1", "note": "(centres undefined)", "values": [
      {"measurement": "Activity", "setting": "Rattus norvegicus [1]", "result": 97.9, "unit": "%"},
      {"measurement": "Activity", "setting": "Rattus norvegicus [2]", "result": 94.13, "unit": "%"},
      {"measurement": "inhibition in vivo at 50 mg/kg", "setting": "Rattus norvegicus [3]", "result": 90.1, "unit": "%"},
      {"measurement": "inhibition in vivo at 25 mg/kg", "setting": "Rattus norvegicus [4]", "result": 80.1, "unit": "%"}
    ]},
    {"smiles": "COc1ccc(Cl)cc1C(=O)Nc1ccc(C2=NNC(c3ccccc3[N+](=O)[O-])C2)cc1", "note": "(centres undefined)", "values": [
      {"measurement": "Activity", "setting": "Rattus norvegicus [1]", "result": 90.89, "unit": "%"},
      {"measurement": "Activity", "setting": "Rattus norvegicus [2]", "result": 88.3, "unit": "%"},
      {"measurement": "inhibition in vivo at 50 mg/kg", "setting": "Rattus norvegicus [3]", "result": 84.5, "unit": "%"},
      {"measurement": "inhibition in vivo at 25 mg/kg", "setting": "Rattus norvegicus [4]", "result": 72.3, "unit": "%"}
    ]},
    {"smiles": "COc1ccc(C2CC(c3ccc(NC(=O)c4cc(Cl)ccc4OC)cc3)=NN2)cc1", "note": "(centres undefined)", "values": [
      {"measurement": "Activity", "setting": "Rattus norvegicus [1]", "result": 89, "unit": "%"},
      {"measurement": "Activity", "setting": "Rattus norvegicus [2]", "result": 82.55, "unit": "%"},
      {"measurement": "inhibition in vivo at 50 mg/kg", "setting": "Rattus norvegicus [3]", "result": 83, "unit": "%"},
      {"measurement": "inhibition in vivo at 25 mg/kg", "setting": "Rattus norvegicus [4]", "result": 70.5, "unit": "%"}
    ]}
  ]
}
